These results are taken from patent US12479847B2 (DANA-FARBER CANCER INSTITUTE, INC., priority 2019, dated 2025).

Assay in all cases: KINOMEscan (ScanMAX) kinase profiling
Common to all, as to type: binding

Assay [1] addresses T1, panel of 468 kinases (Homo sapiens, UniProt Q86UE8).
T1 construct: purchased KINOMEscan (ScanMAX) service
The following applies: TLK2; 1 μM; read-out: % control.

For assay [2], the target named is T2, panel of 468 kinases (Homo sapiens, UniProt P09619).
T2 construct: purchased KINOMEscan (ScanMAX) service
T2 sequence (P09619 33-1106): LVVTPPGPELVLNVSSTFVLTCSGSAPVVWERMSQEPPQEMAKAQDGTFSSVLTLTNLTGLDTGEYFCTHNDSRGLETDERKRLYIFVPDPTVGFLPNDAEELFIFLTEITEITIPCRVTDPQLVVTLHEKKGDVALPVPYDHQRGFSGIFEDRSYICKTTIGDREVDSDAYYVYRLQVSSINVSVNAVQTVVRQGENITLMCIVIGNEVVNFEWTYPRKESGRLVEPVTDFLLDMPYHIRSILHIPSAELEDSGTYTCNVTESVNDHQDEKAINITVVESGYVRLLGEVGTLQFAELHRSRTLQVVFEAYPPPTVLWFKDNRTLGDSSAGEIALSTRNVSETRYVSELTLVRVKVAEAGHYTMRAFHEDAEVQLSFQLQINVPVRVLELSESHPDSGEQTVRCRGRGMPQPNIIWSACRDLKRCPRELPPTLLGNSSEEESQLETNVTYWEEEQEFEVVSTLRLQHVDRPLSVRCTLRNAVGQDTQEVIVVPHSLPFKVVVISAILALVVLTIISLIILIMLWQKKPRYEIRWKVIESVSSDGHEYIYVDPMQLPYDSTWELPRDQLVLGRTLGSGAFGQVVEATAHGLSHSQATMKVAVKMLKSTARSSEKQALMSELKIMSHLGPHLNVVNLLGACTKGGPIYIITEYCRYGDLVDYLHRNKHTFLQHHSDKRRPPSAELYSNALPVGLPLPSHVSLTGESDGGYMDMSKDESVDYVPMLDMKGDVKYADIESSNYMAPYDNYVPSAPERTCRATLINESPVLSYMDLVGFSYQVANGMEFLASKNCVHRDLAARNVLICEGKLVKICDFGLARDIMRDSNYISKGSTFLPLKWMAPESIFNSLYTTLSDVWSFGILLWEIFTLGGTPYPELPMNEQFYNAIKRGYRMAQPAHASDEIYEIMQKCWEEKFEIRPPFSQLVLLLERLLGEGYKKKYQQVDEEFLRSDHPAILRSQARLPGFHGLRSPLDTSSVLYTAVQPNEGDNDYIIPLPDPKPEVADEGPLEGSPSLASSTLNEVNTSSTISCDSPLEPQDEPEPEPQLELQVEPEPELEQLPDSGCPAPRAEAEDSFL
The following applies: PDGFRB; 1 μM; read-out: % control.

Assay [3] addresses T3, panel of 468 kinases (Homo sapiens, UniProt Q9NRM7).
T3 construct: purchased KINOMEscan (ScanMAX) service
T3 sequence (Q9NRM7 1-1088): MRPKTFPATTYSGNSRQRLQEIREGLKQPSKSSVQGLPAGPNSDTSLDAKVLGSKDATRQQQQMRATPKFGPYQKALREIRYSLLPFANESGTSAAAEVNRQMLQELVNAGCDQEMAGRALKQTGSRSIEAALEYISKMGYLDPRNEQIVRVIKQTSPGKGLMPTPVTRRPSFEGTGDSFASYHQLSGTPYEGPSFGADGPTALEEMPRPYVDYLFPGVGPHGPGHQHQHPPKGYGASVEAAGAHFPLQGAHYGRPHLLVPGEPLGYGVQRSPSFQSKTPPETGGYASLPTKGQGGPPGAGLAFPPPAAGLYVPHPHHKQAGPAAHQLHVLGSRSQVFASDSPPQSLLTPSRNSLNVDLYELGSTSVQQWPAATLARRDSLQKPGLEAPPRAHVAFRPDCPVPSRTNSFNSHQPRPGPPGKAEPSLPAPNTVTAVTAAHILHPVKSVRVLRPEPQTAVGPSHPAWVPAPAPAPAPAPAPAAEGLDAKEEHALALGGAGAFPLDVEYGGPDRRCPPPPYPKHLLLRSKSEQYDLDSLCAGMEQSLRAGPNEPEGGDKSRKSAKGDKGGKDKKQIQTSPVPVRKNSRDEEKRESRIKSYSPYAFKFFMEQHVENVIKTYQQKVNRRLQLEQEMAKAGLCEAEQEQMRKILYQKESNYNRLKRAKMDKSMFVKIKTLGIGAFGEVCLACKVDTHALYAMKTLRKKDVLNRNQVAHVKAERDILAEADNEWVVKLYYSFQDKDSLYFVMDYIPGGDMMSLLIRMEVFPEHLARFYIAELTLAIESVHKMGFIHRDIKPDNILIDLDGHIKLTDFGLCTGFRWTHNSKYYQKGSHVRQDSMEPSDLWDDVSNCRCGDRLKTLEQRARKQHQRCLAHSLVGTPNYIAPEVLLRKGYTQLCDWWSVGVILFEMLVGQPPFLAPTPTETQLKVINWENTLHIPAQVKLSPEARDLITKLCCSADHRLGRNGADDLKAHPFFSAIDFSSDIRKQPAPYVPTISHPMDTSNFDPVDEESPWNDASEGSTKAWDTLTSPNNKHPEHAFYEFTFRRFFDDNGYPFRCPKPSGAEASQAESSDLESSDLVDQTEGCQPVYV
The following applies: LATS2; 1 μM; read-out: % control.

Assay [4] deals with T4, panel of 468 kinases (Homo sapiens, UniProt Q8IYT8).
T4 construct: purchased KINOMEscan (ScanMAX) service
T4 sequence (Q8IYT8 1-1036): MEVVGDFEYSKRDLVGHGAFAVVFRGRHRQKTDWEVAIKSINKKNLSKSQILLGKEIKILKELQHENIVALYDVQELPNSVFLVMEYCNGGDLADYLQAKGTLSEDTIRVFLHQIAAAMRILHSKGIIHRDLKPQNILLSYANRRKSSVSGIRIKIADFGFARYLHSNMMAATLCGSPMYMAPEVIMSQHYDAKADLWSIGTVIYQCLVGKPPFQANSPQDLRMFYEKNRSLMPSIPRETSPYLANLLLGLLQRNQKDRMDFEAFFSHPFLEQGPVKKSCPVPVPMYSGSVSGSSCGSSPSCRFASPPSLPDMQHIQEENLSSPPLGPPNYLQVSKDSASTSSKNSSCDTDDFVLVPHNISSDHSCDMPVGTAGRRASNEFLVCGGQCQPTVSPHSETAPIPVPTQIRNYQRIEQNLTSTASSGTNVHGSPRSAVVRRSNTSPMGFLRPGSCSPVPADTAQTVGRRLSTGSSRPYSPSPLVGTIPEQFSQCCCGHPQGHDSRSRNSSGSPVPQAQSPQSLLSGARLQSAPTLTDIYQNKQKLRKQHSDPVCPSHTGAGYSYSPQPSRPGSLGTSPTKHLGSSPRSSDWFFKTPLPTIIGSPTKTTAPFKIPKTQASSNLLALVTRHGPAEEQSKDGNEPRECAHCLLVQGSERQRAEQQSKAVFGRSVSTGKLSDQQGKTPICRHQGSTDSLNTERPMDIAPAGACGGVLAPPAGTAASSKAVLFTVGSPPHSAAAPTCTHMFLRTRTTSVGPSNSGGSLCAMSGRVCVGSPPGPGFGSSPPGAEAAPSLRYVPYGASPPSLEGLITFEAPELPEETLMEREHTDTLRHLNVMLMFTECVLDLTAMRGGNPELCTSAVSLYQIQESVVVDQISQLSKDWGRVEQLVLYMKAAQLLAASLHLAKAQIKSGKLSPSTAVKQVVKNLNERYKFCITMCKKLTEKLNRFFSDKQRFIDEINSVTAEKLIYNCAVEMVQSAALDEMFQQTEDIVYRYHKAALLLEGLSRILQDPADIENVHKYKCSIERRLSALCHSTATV
The following applies: ULK2; 1 μM; read-out: % control.

In assay [5] the target is T5, panel of 468 kinases (Homo sapiens, UniProt Q9UIK4).
T5 construct: purchased KINOMEscan (ScanMAX) service
T5 sequence (Q9UIK4 whole entry): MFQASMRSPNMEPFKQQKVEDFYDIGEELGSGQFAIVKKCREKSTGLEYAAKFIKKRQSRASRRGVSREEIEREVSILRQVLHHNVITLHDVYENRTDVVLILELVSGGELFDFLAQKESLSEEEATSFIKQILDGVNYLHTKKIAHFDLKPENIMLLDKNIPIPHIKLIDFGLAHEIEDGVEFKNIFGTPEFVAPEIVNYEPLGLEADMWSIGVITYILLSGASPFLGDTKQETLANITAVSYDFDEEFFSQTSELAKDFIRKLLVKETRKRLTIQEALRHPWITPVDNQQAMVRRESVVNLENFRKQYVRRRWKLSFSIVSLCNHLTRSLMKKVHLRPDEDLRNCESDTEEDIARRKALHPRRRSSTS
The following applies: DAPK2; 1 μM; read-out: % control.

T1 sequence (Q86UE8 whole entry): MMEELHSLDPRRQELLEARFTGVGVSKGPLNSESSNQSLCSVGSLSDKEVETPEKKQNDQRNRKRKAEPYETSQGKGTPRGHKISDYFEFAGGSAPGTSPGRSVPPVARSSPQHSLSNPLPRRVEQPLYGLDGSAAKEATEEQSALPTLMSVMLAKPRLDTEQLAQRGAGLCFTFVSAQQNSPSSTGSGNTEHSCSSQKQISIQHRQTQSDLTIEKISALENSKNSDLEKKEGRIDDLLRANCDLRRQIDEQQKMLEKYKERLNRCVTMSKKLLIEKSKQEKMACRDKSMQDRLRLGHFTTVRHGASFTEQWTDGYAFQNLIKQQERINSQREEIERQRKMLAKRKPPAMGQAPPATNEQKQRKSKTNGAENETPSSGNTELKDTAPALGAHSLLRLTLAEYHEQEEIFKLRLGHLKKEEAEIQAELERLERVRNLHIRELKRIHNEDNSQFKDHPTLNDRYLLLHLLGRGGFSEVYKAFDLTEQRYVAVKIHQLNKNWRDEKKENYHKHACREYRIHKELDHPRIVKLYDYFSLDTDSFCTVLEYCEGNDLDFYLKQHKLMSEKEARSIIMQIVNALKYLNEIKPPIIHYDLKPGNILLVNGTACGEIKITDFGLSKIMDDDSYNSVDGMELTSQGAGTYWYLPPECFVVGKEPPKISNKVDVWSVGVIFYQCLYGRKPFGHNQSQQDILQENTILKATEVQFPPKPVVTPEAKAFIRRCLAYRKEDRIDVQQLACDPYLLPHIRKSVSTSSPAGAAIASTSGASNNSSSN

Turning to `CNc1nc(Nc2ccc(S(=O)(=O)N3CCC(N4CCOCC4)CC3)cc2OC)nc2[nH]cc(Cl)c12` [Compound 12, 5-chloro-N2-(2-methoxy-4-((4-morpholinopiperidin-1-yl)sulfonyl)phenyl)-N4-methyl-7H-pyrrolo[2,3-d]pyrimidine-2,4-diamine], the remaining binding at 1 µM amounted to 100% at panel of 468 kinases [1]; 89% at panel of 468 kinases [2]; 100% on panel of 468 kinases [3]; 96% at panel of 468 kinases [4]; 29% on panel of 468 kinases [5].
For `CNc1nc(Nc2ccc(C(=O)N3CCC(N4CCOCC4)CC3)c3c2OCO3)nc2[nH]cc(Cl)c12` [Compound 75, (7-((5-chloro-4-(methylamino)-7H-pyrrolo[2,3-d]pyrimidin-2-yl)amino)benzo[d][1,3]dioxol-4-yl)(4-morpholinopiperidin-1-yl)methanone], the remaining binding at 1 µM at panel of 468 kinases [1] was determined as 100%; at panel of 468 kinases [2], 56%; at panel of 468 kinases [3], 90%; at panel of 468 kinases [4] it was 79%; on panel of 468 kinases [5], 28%.
The like results for `CNc1nc(Nc2ccc(P3(=O)CCN(C4CCOCC4)CC3)cc2OC)nc2[nH]cc(Cl)c12` [Compound 77, 4-(4-((5-chloro-4-(methylamino)-7H-pyrrolo[2,3-d]pyrimidin-2-yl)amino)-3-methoxyphenyl)-1-(tetrahydro-2H-pyran-4-yl)-1,4-azaphosphinane 4-oxide] were, in that order, 100%, 100%, 93%, 91% and 10%.
